Assay results taken from ChEMBL document CHEMBL1201862, “PubChem BioAssay data set” (2004).
Calls of active or inactive are those of the source.

Columns and labels:
Jurkat = assay: blockers of NF-kB activation in T cells – Jurkat, luciferase reporter, luminescence, B- and T-cell, dose response (AID 489004); type: functional, cell-based; conditions: Homo sapiens;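 further: NF-kB luciferase reporter Jurkat cells stimulated with PMA plus ionomycin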
[1] = HEK-293T viability loss, compound-treated – cell-based, uHTS hits, cytotoxicity control for B/T-cell NF-kB inhibitor project, dose response (AID 489019); type: functional;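 further: IC50 reflects cytotoxicity as loss of cell viability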
[2] = target: Glucose-6-phosphate 1-dehydrogenase (Homo sapiens, UniProt P11413); assay: inhibition of Homo sapiens G6PD, dose series – biochemical, fluorescence, selectivity assay for P. falciparum G6PD inhibitor project, dose response (AID 504792); type: functional
Cytochrome P450 3A4 [3] = target: T1, Cytochrome P450 3A4 (Homo sapiens, UniProt P08684);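 further: CYP3A4 tested as one member of a cytochrome P450 panel screen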
[4] = NIH3T3 cell viability loss – ATP luminescence, mouse fibroblasts, counter-screen, dose response (AID 2010); type: functional, cell-based; conditions: NIH3T3;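 further: cells exposed to compound for about 90 hours before reading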
[5] = target: T2, Polyadenylate-binding protein 1 (Homo sapiens, UniProt P11940); assay: MLLE domain peptide-binding blockers, IC50 – biochemical, fluorescence polarization, FITC-PAM2 peptide, dose response (AID 602259); type: functional; conditions: read-out: IC50_Mean
[6] = target: T2, Polyadenylate-binding protein 1; assay: MLLE binding blockers, Cy5 peptide tracer – biochemical, fluorescence polarization, Cy5-PAM2 peptide, secondary, miRNA deadenylation inhibitor project, dose response (AID 602260); type: functional; conditions: read-out: IC50_Mean
[7] = Trypanosoma cruzi growth suppression in host cells – NIH3T3 host cells, beta-gal luminescence, confirmation (AID 2044); type: functional, cell-based;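 further: intracellular parasites grown in NIH/3T3 mouse fibroblasts as host cells; luminescent beta-galactosidase reporter signal from transgenic T. cruzi replicating inside host cells; inhibitors lower the luminescence signal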
Genome polyprotein = Genome polyprotein (dengue virus type 2, UniProt P29990); assay: flavivirus cap methylation enzyme inhibition – biochemical, confirmation dose response, primary screen (AID 588689); type: functional
Beta-galactosidase = Beta-galactosidase (Escherichia coli, UniProt Q8VNN2); assay: detection-enzyme interference by beta-gal modulators – biochemical, E. coli enzyme, set 3, artefact control for CCR6 antagonist project, dose response (AID 504712); type: functional
Cytochrome P450 2D6 = Cytochrome P450 2D6 (Homo sapiens, UniProt P10635);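 further: CYP2D6 member of a cytochrome P450 panel assay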
[8] = MIN6 cell viability loss – mouse insulinoma, cytotoxicity control, dose response (AID 2122); type: functional;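 further: confirmatory high-throughput counterscreen run to flag cytotoxic compounds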
[9] = decrease of insulin promoter-GFP reporter – imaging, high-content screening, mouse beta cells (AID 1628); type: functional; conditions: MIN6
[10] = target: Induced myeloid leukemia cell differentiation protein Mcl-1 (Homo sapiens, UniProt Q07820); type: functional
Paired box protein Pax-8 = Paired box protein Pax-8 (Homo sapiens, UniProt Q06710); assay: PAX8 transcriptional activity inhibition in RMG-I – RMG-I cells, luciferase, cherry-pick, dose response (AID 687027); type: functional, cell-based;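 further: luciferase reporter driven by Pax8 target thyroperoxidase promoter measured by SteadyGlo luminescence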
Exodeoxyribonuclease V = Exodeoxyribonuclease V (Escherichia coli (strain K12), UniProt P04993+P07648+P08394); assay: RecBCD inhibition via phage-restricted bacterial growth – absorbance, V66 E. coli, mutant T4 phage, counter-screen for AddAB inhibitor project, dose response (AID 492957); type: functional, cell-based, Escherichia coli str. K-12 substr. MG1655
[11] = Counterscreen for AddAB inhibitors: absorbance-based bacterial cell-based high throughput dose response assay for inhibitors of bacterial viability. [Related pubchem assays (depositor defined):AID435030, AID449728, AID449731, AID488942, AID488955, AID488956]; type: functional
Cytochrome P450 2C19 = Cytochrome P450 2C19 (Homo sapiens, UniProt P33261); assay: Cytochrome panel assay with activity outcomes. Panel member name: p450-cyp2c19 Compounds with AC50 equal or less than 10 uM are considered active; type: functional; conditions: read-out: AC50
Cytochrome P450 3A4 [12] = target: T1, Cytochrome P450 3A4; remark: listed apart in the source
Cytochrome P450 2C9 = Cytochrome P450 2C9 (Homo sapiens, UniProt P11712)
[13] = target: T3, Dual specificity protein phosphatase 3 (Homo sapiens, UniProt P51452); assay: SAR VHR1 Fluorescent Assay for In Vitro dose response studies. [Related pubchem assays (depositor defined):AID1654, AID1661, AID1878, AID1992, AID2004, AID2070, AID2085]; type: functional
[14] = target: T3, Dual specificity protein phosphatase 3; assay: SAR VHR1 absorbance Assay for In Vitro dose response studies. [Related pubchem assays (depositor defined):AID1654, AID1661, AID1878, AID1992, AID2004]
[15] = target: Dual specificity protein phosphatase 6 (Rattus norvegicus, UniProt Q64346); type: functional;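 further: confirmatory in vitro dose-response testing of MKP-3 inhibition; recombinant His-tagged MKP-3 made in E. coli BL21 with OMFP substrate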
[16] = target: T4, Tyrosine-protein phosphatase non-receptor type 7 (Homo sapiens, UniProt P35236); assay: redox-active compounds inhibiting HePTP phosphatase – biochemical, fluorescence, mechanism study (AID 2068); type: functional
T4 sequence (P35236 whole entry): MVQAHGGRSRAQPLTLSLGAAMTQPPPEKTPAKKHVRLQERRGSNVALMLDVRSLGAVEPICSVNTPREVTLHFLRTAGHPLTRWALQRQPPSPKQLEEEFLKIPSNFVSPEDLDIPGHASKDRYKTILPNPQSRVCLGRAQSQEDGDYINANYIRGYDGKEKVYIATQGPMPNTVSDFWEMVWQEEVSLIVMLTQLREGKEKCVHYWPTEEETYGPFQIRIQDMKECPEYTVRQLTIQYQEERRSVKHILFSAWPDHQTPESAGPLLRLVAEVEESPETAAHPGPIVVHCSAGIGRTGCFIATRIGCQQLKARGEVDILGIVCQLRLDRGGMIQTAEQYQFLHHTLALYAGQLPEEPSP

[17] = target: G-protein coupled receptor 55 (Homo sapiens, UniProt Q9Y2T6); assay: blockers of GPR55 signalling, imaged – imaging, image-based, counter-screen for GPR35 antagonist project, SAR follow-up (AID 2397); type: functional
Hexokinase HKDC1 = target: T5, Hexokinase HKDC1 (Homo sapiens, UniProt Q2TB90); assay: analog inhibition of human HKDC1 activity – biochemical, set 2, SAR follow-up (AID 588355); type: functional
T5 sequence (Q2TB90 whole entry): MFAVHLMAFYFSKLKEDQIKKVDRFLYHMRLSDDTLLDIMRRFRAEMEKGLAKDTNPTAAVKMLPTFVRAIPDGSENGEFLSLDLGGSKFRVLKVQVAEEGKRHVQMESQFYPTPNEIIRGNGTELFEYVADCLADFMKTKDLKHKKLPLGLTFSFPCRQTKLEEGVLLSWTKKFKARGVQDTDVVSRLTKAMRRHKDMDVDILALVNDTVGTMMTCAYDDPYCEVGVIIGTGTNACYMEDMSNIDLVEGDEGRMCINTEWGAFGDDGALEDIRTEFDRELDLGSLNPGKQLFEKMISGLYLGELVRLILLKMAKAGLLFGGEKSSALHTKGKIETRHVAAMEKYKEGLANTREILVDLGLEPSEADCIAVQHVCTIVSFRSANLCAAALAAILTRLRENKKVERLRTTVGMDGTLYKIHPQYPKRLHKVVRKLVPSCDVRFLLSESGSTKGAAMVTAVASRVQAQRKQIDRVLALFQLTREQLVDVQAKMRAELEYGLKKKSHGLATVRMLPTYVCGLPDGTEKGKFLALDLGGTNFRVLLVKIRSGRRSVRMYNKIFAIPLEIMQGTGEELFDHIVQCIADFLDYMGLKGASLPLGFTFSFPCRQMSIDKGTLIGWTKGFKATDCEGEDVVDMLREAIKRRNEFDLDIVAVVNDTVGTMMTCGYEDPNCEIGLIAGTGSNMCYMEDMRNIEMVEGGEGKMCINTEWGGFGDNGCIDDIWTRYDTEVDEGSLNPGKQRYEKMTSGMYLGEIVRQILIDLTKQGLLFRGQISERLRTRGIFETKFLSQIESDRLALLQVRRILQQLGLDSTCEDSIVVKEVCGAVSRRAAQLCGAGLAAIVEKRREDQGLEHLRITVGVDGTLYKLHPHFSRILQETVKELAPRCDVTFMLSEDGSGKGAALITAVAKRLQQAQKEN

Hexokinase-1 = target: T6, Hexokinase-1 (Homo sapiens, UniProt P19367); assay: hexokinase 1 activity inhibitors, potency – biochemical, set 2, resazurin fluorescence coupled readout, selectivity assay for HKDC1 inhibitor project, SAR follow-up (AID 588356); type: functional
T6 sequence (P19367 whole entry): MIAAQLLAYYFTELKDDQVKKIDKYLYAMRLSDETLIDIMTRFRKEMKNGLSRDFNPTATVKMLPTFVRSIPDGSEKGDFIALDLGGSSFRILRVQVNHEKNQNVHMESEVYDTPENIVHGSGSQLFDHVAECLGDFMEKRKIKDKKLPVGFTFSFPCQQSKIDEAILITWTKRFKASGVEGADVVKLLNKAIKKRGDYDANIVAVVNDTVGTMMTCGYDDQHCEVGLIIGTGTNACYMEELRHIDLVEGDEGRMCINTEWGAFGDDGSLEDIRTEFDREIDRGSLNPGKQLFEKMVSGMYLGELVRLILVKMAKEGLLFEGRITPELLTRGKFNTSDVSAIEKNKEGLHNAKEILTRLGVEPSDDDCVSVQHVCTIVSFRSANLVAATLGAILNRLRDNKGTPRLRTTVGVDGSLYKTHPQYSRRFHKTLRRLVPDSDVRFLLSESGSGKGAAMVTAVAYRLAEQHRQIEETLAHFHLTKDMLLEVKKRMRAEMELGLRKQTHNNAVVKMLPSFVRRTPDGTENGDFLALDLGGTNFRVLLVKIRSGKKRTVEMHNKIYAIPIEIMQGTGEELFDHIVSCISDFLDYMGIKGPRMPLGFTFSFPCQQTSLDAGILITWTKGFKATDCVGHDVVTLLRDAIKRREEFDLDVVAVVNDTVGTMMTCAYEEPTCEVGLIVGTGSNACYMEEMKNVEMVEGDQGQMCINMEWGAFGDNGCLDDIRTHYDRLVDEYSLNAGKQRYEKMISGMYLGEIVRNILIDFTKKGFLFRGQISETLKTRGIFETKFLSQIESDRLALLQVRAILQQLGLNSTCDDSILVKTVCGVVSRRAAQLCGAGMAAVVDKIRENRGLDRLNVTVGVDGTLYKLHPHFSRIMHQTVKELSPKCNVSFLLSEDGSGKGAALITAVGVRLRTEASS

[18] = target: T7, Alkaline phosphatase, tissue-nonspecific isozyme (Homo sapiens, UniProt P05186); assay: activation of tissue-nonspecific alkaline phosphatase – biochemical, TNAP isozyme, human IAP uHTS hits, selectivity assay for human IAP activator project, dose response (AID 488886); type: functional;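 further: potency of compounds raising TNAP activity as a selectivity check on IAP activators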
T7 sequence (P05186 whole entry): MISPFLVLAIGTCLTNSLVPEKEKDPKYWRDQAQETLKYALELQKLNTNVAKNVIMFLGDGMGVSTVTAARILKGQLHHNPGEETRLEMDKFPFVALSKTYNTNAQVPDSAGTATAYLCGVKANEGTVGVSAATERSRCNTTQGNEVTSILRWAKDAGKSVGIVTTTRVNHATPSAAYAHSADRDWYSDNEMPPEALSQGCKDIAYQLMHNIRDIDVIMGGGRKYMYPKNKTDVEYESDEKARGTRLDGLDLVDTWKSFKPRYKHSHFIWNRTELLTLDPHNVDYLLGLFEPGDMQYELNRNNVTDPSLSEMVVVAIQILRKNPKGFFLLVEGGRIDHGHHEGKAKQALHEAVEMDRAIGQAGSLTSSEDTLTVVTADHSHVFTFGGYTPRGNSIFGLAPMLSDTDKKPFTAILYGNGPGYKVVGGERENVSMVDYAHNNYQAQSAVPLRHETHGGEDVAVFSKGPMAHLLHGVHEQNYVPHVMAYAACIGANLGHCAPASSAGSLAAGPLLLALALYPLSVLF

[19] = target: T8, Intestinal-type alkaline phosphatase (Homo sapiens, UniProt P09923); assay: human intestinal alkaline phosphatase activators, dose response, biochemical, luminescence, uHTS hits (AID 463120); type: functional
[20] = target: Intestinal-type alkaline phosphatase (Mus musculus, UniProt P24822); assay: PubChem AID 488875; type: functional
[21] = target: T8, Intestinal-type alkaline phosphatase; assay: activation of human intestinal alkaline phosphatase – biochemical, luminescent, uHTS hits, set 2, dose response (AID 488817); type: functional;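 further: potency of activators that raise enzyme activity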

T8 sequence (P09923 whole entry): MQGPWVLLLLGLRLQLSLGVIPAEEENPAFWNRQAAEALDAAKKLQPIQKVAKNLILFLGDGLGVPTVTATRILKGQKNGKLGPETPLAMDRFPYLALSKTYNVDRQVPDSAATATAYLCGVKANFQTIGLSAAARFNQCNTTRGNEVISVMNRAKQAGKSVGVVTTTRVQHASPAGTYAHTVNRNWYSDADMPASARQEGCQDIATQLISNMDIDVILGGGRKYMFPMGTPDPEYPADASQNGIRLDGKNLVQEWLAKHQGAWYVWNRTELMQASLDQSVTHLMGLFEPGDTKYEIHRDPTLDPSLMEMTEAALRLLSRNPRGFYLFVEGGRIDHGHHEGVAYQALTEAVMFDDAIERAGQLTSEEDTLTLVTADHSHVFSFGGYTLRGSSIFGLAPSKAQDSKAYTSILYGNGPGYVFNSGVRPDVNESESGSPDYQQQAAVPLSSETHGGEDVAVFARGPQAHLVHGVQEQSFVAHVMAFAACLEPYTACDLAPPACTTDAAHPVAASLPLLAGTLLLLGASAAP
T3 sequence (P51452 whole entry): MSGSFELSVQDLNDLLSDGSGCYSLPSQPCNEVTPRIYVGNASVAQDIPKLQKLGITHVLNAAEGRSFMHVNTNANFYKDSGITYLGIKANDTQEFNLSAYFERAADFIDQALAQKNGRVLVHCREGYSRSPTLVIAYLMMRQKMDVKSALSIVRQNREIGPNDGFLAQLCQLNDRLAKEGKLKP
T2 sequence (P11940 whole entry, the tested form may be a part): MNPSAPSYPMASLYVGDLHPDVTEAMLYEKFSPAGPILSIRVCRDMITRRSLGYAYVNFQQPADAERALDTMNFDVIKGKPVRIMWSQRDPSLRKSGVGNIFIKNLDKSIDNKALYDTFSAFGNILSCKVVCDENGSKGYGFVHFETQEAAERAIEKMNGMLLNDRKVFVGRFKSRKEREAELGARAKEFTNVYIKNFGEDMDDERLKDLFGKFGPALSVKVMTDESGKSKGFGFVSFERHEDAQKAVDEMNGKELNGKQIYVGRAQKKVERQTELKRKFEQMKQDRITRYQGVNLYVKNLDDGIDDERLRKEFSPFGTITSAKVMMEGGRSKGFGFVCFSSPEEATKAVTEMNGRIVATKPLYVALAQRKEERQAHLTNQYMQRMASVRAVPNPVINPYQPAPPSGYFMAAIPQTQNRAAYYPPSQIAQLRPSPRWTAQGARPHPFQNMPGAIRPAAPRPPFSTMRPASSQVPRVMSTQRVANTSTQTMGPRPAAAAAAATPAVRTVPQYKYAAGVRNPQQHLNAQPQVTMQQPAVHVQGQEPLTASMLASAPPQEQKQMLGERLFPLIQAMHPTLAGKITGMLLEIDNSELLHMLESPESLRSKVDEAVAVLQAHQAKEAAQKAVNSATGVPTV
T1 sequence (P08684 whole entry): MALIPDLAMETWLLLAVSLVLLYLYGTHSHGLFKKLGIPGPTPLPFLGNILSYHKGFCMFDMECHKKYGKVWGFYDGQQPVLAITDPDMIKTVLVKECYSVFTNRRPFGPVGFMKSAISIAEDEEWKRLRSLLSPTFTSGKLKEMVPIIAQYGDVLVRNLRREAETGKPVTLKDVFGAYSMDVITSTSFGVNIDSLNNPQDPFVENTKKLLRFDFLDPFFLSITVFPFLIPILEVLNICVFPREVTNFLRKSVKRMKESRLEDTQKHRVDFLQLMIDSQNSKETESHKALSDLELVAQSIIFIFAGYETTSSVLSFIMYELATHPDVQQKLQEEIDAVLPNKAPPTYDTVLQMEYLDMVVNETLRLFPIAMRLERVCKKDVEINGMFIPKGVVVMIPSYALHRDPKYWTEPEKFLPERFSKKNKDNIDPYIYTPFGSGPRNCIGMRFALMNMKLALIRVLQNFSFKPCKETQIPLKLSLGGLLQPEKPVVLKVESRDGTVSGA
Sequence of Cytochrome P450 2D6 (P10635 whole entry): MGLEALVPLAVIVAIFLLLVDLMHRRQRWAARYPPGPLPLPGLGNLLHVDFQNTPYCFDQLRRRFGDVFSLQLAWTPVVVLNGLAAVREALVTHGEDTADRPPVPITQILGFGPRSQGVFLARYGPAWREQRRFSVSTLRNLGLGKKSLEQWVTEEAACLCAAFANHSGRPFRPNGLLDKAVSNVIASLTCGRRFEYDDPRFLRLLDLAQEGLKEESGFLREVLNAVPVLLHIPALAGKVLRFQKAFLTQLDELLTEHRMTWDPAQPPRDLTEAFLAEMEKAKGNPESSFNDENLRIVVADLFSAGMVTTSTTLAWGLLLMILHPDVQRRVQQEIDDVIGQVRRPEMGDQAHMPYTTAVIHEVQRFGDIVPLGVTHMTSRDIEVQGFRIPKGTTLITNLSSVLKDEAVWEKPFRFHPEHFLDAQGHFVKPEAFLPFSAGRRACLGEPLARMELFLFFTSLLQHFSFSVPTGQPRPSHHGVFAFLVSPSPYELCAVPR
Sequence of Paired box protein Pax-8 (Q06710 whole entry): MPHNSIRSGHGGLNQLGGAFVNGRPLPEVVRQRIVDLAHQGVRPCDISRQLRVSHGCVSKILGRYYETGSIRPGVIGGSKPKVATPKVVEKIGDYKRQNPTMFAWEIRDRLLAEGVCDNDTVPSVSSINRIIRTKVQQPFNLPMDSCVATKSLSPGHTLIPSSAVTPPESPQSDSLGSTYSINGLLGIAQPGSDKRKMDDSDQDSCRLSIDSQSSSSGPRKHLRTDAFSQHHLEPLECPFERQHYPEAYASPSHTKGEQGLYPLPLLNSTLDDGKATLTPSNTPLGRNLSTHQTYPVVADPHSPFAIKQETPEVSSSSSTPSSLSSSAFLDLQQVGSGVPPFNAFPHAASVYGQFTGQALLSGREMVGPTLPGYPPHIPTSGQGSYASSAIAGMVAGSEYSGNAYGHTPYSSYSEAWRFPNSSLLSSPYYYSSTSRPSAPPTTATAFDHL
Sequence of Intestinal-type alkaline phosphatase (Mus musculus, UniProt P24822) (P24822 whole entry): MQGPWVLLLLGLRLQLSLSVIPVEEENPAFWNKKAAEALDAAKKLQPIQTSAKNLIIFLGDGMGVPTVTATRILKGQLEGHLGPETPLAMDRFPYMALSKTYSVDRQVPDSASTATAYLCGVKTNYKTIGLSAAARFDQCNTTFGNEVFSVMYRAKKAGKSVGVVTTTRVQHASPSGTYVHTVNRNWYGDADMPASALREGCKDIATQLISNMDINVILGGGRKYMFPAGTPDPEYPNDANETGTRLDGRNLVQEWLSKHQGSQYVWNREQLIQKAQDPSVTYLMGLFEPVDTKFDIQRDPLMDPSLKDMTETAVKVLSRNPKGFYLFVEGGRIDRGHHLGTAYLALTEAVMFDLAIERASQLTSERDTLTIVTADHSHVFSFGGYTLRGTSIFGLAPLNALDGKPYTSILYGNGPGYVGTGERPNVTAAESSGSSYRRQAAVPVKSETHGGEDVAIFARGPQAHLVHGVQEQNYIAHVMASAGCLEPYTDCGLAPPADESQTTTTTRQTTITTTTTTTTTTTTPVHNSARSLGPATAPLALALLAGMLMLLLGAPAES
Sequence of Dual specificity protein phosphatase 6 (Q64346 whole entry): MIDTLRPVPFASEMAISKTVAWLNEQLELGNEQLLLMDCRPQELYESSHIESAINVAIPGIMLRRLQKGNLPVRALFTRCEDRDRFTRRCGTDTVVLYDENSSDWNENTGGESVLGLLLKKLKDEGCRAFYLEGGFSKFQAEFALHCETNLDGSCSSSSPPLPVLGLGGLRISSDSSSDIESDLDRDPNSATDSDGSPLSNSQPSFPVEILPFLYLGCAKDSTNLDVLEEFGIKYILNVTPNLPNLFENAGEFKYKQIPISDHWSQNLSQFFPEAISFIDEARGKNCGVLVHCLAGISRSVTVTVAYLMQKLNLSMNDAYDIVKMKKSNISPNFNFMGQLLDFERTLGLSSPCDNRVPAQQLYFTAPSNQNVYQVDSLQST
Sequence of Beta-galactosidase (Q8VNN2 whole entry): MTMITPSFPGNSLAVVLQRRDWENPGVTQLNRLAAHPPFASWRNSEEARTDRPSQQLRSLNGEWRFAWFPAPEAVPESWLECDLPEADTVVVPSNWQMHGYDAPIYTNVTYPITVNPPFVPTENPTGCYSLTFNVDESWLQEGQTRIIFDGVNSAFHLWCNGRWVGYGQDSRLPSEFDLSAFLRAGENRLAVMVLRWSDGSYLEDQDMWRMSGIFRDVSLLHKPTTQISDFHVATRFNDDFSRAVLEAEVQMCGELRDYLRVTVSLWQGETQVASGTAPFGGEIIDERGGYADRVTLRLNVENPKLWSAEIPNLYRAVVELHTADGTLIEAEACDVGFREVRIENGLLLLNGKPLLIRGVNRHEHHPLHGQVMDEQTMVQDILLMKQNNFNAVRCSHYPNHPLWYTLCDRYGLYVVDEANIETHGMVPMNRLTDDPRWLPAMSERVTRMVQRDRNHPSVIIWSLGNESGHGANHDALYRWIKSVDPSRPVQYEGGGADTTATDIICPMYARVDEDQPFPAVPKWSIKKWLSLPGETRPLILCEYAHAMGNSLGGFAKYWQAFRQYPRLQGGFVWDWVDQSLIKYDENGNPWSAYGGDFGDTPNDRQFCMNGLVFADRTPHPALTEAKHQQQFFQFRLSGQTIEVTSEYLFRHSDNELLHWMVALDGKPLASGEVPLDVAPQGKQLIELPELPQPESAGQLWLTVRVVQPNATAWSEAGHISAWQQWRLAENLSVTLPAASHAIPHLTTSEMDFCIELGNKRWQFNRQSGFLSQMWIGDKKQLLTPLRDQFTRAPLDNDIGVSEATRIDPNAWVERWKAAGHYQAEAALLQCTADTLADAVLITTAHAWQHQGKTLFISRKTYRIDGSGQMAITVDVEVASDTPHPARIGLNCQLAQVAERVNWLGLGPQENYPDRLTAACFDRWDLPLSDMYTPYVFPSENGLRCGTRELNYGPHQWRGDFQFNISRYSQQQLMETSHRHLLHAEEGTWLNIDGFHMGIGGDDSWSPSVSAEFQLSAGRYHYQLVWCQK

Structure (SMILES): Cc1cc(NNC(=O)Nc2cccc(Cl)c2)nc2c1c(C)nn2C
- IC50 (Jurkat): 46.2 µM (inactive)
- IC50 [1]: > 80 µM (inactive)

Structure (SMILES): Cc1cc(O)c(-c2cc(O)c(C)cc2O)cc1O
- IC50 [2]: 11.1 µM (active)
- AC50 (Cytochrome P450 3A4 [3]): 1.58 µM (inconclusive)
- EC50 [4]: 4.13 µM (active)
- IC50 [5]: > 66 µM (inactive)
- IC50 [6]: > 66 µM (inactive)
- EC50 [7]: 2.37 µM (active)
- IC50 (Genome polyprotein): 39.8 µM (active)
- IC50 (Beta-galactosidase): > 66.6 µM (inactive)
- AC50 (Cytochrome P450 2D6): inconclusive

Structure (SMILES): O=C(Nc1ccc(N2CCOCC2)cc1)Nc1ccc2nc(-c3ccco3)c(-c3ccco3)nc2c1
- IC50 [8]: 3.55 µM (active)
- IC50 [9]: 1.91 µM (active)
- IC50 [10]: 0.894 µM (active)

Structure (SMILES): COc1cc(NC(=O)c2ccc([N+](=O)[O-])o2)ccc1NC(=O)c1ccco1
- AC50 (Paired box protein Pax-8): 3.75 µM (active)
- IC50 (Exodeoxyribonuclease V): > 119 µM (inactive)
- IC50 [11]: > 119 µM (inactive)

Structure (SMILES): CCOc1ccc(CSC(CC(=O)O)C(=O)O)cc1 (stereo unspecified)
- AC50 (Cytochrome P450 2C19): 14.1 µM (inconclusive)
- AC50 (Cytochrome P450 3A4 [12]): inconclusive
- AC50 (Cytochrome P450 2C9): 15.8 µM (inconclusive)

Structure (SMILES): CN(C)C(=O)c1cn(CCOc2ccccc2)c2ccccc12
- IC50 [13]: > 100 µM (inactive)
- IC50 [14]: > 100 µM (inactive)
- IC50 [15]: > 100 µM (inactive)
- IC50 [16]: > 100 µM (inactive)

Structure (SMILES): COc1ccc(Cn2c(SCC(=O)Nc3ccc(C)c(C)c3)nc3ccsc3c2=O)cc1
- IC50 [17]: > 32 µM (inactive)

Structure (SMILES): Cc1ccccc1N1C(=O)c2ccccc2C1Nc1ccc(Cl)cc1 (stereo unspecified)
- IC50 (Hexokinase HKDC1): > 80 µM (inactive)
- IC50 (Hexokinase-1): > 80 µM (inactive)

Structure (SMILES): O=C(CCCCC(=O)NNC(=O)COc1ccccc1)NNC(=O)COc1ccccc1
- EC50 [18]: 10 µM (active)
- EC50 [19]: 8.19 µM (active)
- EC50 [20]: > 100 µM (inactive)
- EC50 [21]: 9.87 µM (active)
